Experimental data as given in ChEMBL document CHEMBL1201862, “PubChem BioAssay data set” (2004).
Values joined by “and” are separate entries in the source; they are usually repeats but may differ in a detail not shown here. Equal values may be shown once.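 Cultured in 96-well plates, cells were exposed to test compound for 48 hours across five concentrations. At the GI50, growth is halved.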 Active and inactive are the calls of the source. Cut-off read from the data, not from the text of the source: active = GI50 up to about 1.1 µM and inactive = higher.

Legend:
Test in all cases: DTP human tumour cell line panel, 48 h
KM12 = system: KM12
A549 = system: A549
RPMI-8226 = system: RPMI-8226
CCRF-CEM = system: CCRF-CEM
PC-3 = system: PC-3
COLO 205 = system: COLO 205
RXF 393 = system: RXF 393
DU-145 = system: DU-145
LOX IMVI = system: LOX IMVI
MDA-MB-231 = system: MDA-MB-231
HL-60 = system: HL-60
SW-620 = system: SW-620
MDA-N = system: MDA-N
SNB-19 = system: SNB-19
OVCAR-8 = system: OVCAR-8
MOLT-4 = system: MOLT-4
OVCAR-4 = system: OVCAR-4
T47D = system: T47D
UACC-257 = system: UACC-257
OVCAR-5 = system: OVCAR-5
ACHN = system: ACHN
IGROV-1 = system: IGROV-1
HOP-92 = system: HOP-92
CAKI-1 = system: CAKI-1
NCI/ADR-RES = system: NCI/ADR-RES
Malme-3M = system: Malme-3M
TK-10 = system: TK-10
SK-MEL-5 = system: SK-MEL-5
SF-268 = system: SF-268
SN12C = system: SN12C
SK-MEL-28 = system: SK-MEL-28
SR = system: SR
SNB-75 = system: SNB-75
786-0 = system: 786-0
MDA-MB-435 = system: MDA-MB-435
EKVX = system: EKVX
OVCAR-3 = system: OVCAR-3
NCI-H23 = system: NCI-H23
NCI-H522 = system: NCI-H522
M14 = system: M14
HCT-116 = system: HCT-116
HOP-62 = system: HOP-62
SF-295 = system: SF-295
UO-31 = system: UO-31
UACC-62 = system: UACC-62
HCC 2998 = system: HCC 2998
K562 = system: K562
NCI-H226 = system: NCI-H226
HT-29 = system: HT-29
NCI-H460 = system: NCI-H460
Hs-578T = system: Hs-578T
SK-OV-3 = system: SK-OV-3
SF-539 = system: SF-539

CCN(CC)C(=O)c1cc([N+](=O)[O-])c(=O)n2c1[nH]c1ccccc12
GI50 (KM12): > 100 µM (inactive)
GI50 (A549): > 100 µM (inactive)
GI50 (RPMI-8226): > 100 µM (inactive)
GI50 (CCRF-CEM): > 100 µM (inactive)
GI50 (PC-3): > 100 µM (inactive)
GI50 (COLO 205): > 100 µM (inactive)
GI50 (RXF 393): > 100 µM (inactive)
GI50 (DU-145): > 100 µM (inactive)
GI50 (LOX IMVI): > 100 µM (inactive)
GI50 (MDA-MB-231): > 100 µM (inactive)
GI50 (HL-60): > 100 µM (inactive)
GI50 (SW-620): > 100 µM (inactive)
GI50 (MDA-N): > 100 µM (inactive)
GI50 (SNB-19): > 100 µM (inactive)
GI50 (OVCAR-8): > 100 µM (inactive)
GI50 (MOLT-4): > 100 µM (inactive)
GI50 (OVCAR-4): > 100 µM (inactive)
GI50 (T47D): > 100 µM (inactive)
GI50 (UACC-257): > 100 µM (inactive)
GI50 (OVCAR-5): > 100 µM (inactive)
GI50 (ACHN): > 100 µM (inactive)
GI50 (IGROV-1): > 100 µM (inactive)
GI50 (HOP-92): > 100 µM (inactive)
GI50 (CAKI-1): > 100 µM (inactive)
GI50 (NCI/ADR-RES): > 100 µM (inactive)
GI50 (Malme-3M): > 100 µM (inactive)
GI50 (TK-10): > 100 µM (inactive)
GI50 (SK-MEL-5): > 100 µM (inactive)
GI50 (SF-268): > 100 µM (inactive)
GI50 (SN12C): > 100 µM (inactive)
GI50 (SK-MEL-28): > 100 µM (inactive)
GI50 (SR): > 100 µM (inactive)
GI50 (SNB-75): > 100 µM (inactive)
GI50 (786-0): > 100 µM (inactive)
GI50 (MDA-MB-435): > 100 µM (inactive)
GI50 (EKVX): > 100 µM (inactive)
GI50 (OVCAR-3): > 100 µM (inactive)
GI50 (NCI-H23): > 100 µM (inactive)
GI50 (NCI-H522): > 100 µM (inactive)
GI50 (M14): > 100 µM (inactive)
GI50 (HCT-116): > 100 µM (inactive)
GI50 (HOP-62): > 100 µM (inactive)
GI50 (SF-295): > 100 µM (inactive)
GI50 (UO-31): > 100 µM (inactive)
GI50 (UACC-62): > 100 µM (inactive)
GI50 (HCC 2998): > 100 µM (inactive)
GI50 (K562): > 100 µM (inactive)
GI50 (NCI-H226): > 100 µM (inactive)
GI50 (HT-29): > 100 µM (inactive)
GI50 (NCI-H460): > 100 µM (inactive)
GI50 (Hs-578T): > 100 µM (inactive)
GI50 (SK-OV-3): > 100 µM (inactive)
GI50 (SF-539): > 100 µM (inactive)

Nc1ncn(C2OC(CO)C(O)C2O)c(=O)n1 (centres undefined)
GI50 (MOLT-4): 735 nM (active) and 1.22 µM (inactive)
